Laboratory results from PubChem BioAssay (NCI).
“And” between values parts separate entries of the source, which are not always exact repeats. Equal values may be shown once.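 Five compound concentrations were applied to cells in 96-well plates for 48 hours; endpoints were derived by simple linear interpolation of the resulting dose-response curve. Abbreviation: GI50, concentration required for 50% inhibition of growth. TGI: total growth inhibition.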

Key:
Test in all cases: inhibition of tumour cell growth, NCI panel, 48 h
OVCAR-5 ovarian = test system: OVCAR-5 ovarian
IGROV1 ovarian = test system: IGROV1 ovarian
UACC-257 melanoma = test system: UACC-257 melanoma
SN12C renal = test system: SN12C renal
786-0 renal = test system: 786-0 renal
SK-MEL-2 melanoma = test system: SK-MEL-2 melanoma
NCI/ADR-RES ovarian = test system: NCI/ADR-RES ovarian
SNB-19 CNS = test system: SNB-19 CNS
DU-145 prostate = test system: DU-145 prostate
MALME-3M melanoma = test system: MALME-3M melanoma

SMILES	GI50 (OVCAR-5 ovarian)	TGI (OVCAR-5 ovarian)	GI50 (IGROV1 ovarian)	TGI (IGROV1 ovarian)	GI50 (UACC-257 melanoma)	TGI (UACC-257 melanoma)	GI50 (SN12C renal)	TGI (SN12C renal)	GI50 (786-0 renal)	TGI (786-0 renal)	GI50 (SK-MEL-2 melanoma)	TGI (SK-MEL-2 melanoma)	GI50 (NCI/ADR-RES ovarian)	TGI (NCI/ADR-RES ovarian)	GI50 (SNB-19 CNS)	TGI (SNB-19 CNS)	GI50 (DU-145 prostate)	TGI (DU-145 prostate)	GI50 (MALME-3M melanoma)	TGI (MALME-3M melanoma)
[C](#Cc1ccccc1)[Hg][C]#Cc1ccccc1	63.1 µM	> 100 µM	29.7 µM	97.5 µM	22.5 µM	41.6 µM	30.1 µM	73.3 µM	30.6 µM	> 100 µM	37.7 µM	> 100 µM	> 100 µM	> 100 µM	47.3 µM	> 100 µM	48.2 µM	> 100 µM	27.9 µM	54.7 µM
C=CCNc1nc2c(s1)C(=O)c1ccccc1C2=O	–	37.5 µM	–	38.3 µM	–	7.2 µM	–	27.4 µM	–	28.5 µM	–	25.9 µM	–	82.8 µM	–	19.2 µM	–	35.6 µM	–	25.6 µM
FC(F)(c1ccc2ncccc2c1)c1nnc2ccc(-c3ccncc3)nn12	> 100 µM	> 100 µM	49.4 µM	> 100 µM	> 100 µM	> 100 µM	37.1 µM	> 100 µM	69.3 µM	> 100 µM	> 100 µM	> 100 µM	64.3 µM	> 100 µM	> 100 µM	> 100 µM	> 100 µM	> 100 µM	> 100 µM	> 100 µM
NS(=O)(=O)c1ccc(-n2nc3c(c2-c2ccc(Cl)cc2)Cc2ccccc2-3)cc1	24.2 µM	57.4 µM	2.58 µM	14.2 µM	20.6 µM	39.5 µM	5.49 µM	18.3 µM	14.6 µM	30.7 µM	13.6 µM	29.3 µM	19.6 µM	44.8 µM	31.7 µM	> 100 µM	15.1 µM	33 µM	2.96 µM	14.7 µM
COc1ccc(-c2ccncc2)cc1C(N)=O	> 25 µM	> 25 µM	> 25 µM	> 25 µM	> 25 µM	> 25 µM	> 25 µM	> 25 µM	> 25 µM	> 25 µM	> 25 µM	> 25 µM	> 25 µM	> 25 µM	> 25 µM	> 25 µM	> 25 µM	> 25 µM	> 25 µM	> 25 µM
COc1cc(C2SCCCCCCCCCCSC(c3ccc(O)c(OC)c3)SCCCCCCCCCCS2)ccc1O (stereo not given)	–	> 100 µM	–	> 100 µM	–	> 100 µM	–	> 100 µM	–	> 100 µM	–	> 100 µM	–	> 100 µM	–	> 100 µM	–	> 100 µM	–	> 100 µM
CC(C)Nc1cc(-c2c[nH]c(C(=O)N[C@H](CO)c3cccc(Cl)c3)c2)c(Cl)cn1	0.259 µM and 0.187 µM	16.2 µM and > 10 µM	0.516 µM and 0.366 µM	20.5 µM and > 10 µM	0.0732 µM	0.519 µM	4.04 µM and > 4.03 µM	20.9 µM and > 10 µM	2.85 µM and 3.23 µM	18.3 µM and > 10 µM	0.18 µM and 0.179 µM	0.75 µM and 1.41 µM	5.57 µM and > 7.85 µM	24.4 µM and > 10 µM	4.84 µM	20.6 µM and > 10 µM	5.96 µM and 9.49 µM	20.4 µM and > 10 µM	0.0249 µM and 0.0475 µM	0.149 µM
